Results published in ChEMBL document CHEMBL1201862, “PubChem BioAssay data set” (2004).
Values belong to the molecule of their own block, whether it stands above or below them. Active and inactive are the calls of the source. Cut-off read from the data, not from the text of the source, for most assays here: actives have a measured IC50 and inactives only a lower limit.

Experiments:
Prothrombin = Prothrombin (Bos taurus, UniProt P00735); experiment: thrombin inhibition, dose response, biochemical, fluorescence polarization, uHTS hits (AID 602369); type: functional
[1] = molecular target: T1, Carboxy-terminal domain RNA polymerase II polypeptide A small phosphatase 1 (Homo sapiens, UniProt Q9GZU7); experiment: inhibitors of CTDSP1, concentration-response testing, biochemical assay, absorbance-based, actives from ultra-high-throughput screening (AID 540297); type: functional
T1 sequence (Q9GZU7 whole entry): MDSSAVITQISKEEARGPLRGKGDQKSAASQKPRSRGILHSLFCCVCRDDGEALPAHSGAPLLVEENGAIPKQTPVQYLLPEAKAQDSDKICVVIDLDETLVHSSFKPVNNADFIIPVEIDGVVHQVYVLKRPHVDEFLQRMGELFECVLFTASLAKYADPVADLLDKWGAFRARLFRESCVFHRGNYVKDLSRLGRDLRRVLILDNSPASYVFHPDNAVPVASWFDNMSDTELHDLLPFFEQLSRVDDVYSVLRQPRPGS

[2] = molecular target: 72 kDa type IV collagenase (Homo sapiens, UniProt P08253); experiment: Dose Response validation of uHTS RPN11 inhibitor hits using a MMP-2 Fluorescence assay.; type: functional
[3] = molecular target: T2, Voltage-gated N-type calcium channel alpha-1B subunit/Amyloid beta A4 precursor protein-binding family A member 1 (Homo sapiens, UniProt Q00975+Q02410); type: protein assay
[4] = molecular target: T2, Voltage-gated N-type calcium channel alpha-1B subunit/Amyloid beta A4 precursor protein-binding family A member 1; type: protein assay; remark: listed apart in the source
[5] = molecular target: 26S proteasome non-ATPase regulatory subunit 14 (Homo sapiens, UniProt O00487); experiment: inhibition of proteasome subunit RPN11 – biochemical, fluorescence polarization, uHTS hits, confirmation (AID 602368); type: functional
SUMO-activating enzyme = SUMO-activating enzyme (Homo sapiens, UniProt Q9UBT2); experiment: SUMOylation inhibitor hit validation, confirmation, SUMOylation inhibitor project, biochemical, AlphaScreen (AID 2018); type: functional
[6] = molecular target: Tyrosine-protein phosphatase non-receptor type 7 (Homo sapiens, UniProt P35236); experiment: HePTP (PTPN7) phosphatase inhibitor potency, SAR follow-up, biochemical, set 2 (AID 449736); type: functional
[7] = molecular target: T3, E3 ubiquitin-protein ligase XIAP (Homo sapiens, UniProt P98170); experiment: Counter Screen using XIAP-Bir3 for Chemical Antagonists of Bir1/2 domains of IAP-family anti-apoptotic proteins. [Related pubchem assays (depositor defined):AID1018, AID1449, AID1514, AID1638, AID1749, AID1750, AID488957, AID488963]
[8] = molecular target: T3, E3 ubiquitin-protein ligase XIAP; experiment: XIAP antagonists, biochemical, IAP family, fluorescence polarization (AID 1018); type: functional
Integrin alpha-4 = Integrin alpha-4 (Homo sapiens, UniProt P13612); experiment: VLA-4 integrin allosteric ligands, SAR follow-up, cell-based, LIBS antibody binding, flow cytometry (AID 488791); type: functional
[9] = Luminescence Cell-Based Dose Retest to Confirm Inhibitors of Cancer Stem Cells. [Related pubchem assays (depositor defined):AID2717, AID2721]; type: functional; details: Homo sapiens
[10] = molecular target: T4, Ubiquitin-conjugating enzyme E2 N (Homo sapiens, UniProt P61088); type: functional;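 note: Dose-response confirmation in a TR-FRET assay detecting UBC13-driven polyubiquitin chain formation, inhibition measured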
T4 sequence (P61088 whole entry): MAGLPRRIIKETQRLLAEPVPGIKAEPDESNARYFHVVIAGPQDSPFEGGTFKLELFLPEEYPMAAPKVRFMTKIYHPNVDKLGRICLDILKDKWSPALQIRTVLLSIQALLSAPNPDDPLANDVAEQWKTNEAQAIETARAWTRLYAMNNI

[11] = molecular target: Alkaline phosphatase, placental type (Homo sapiens, UniProt P05187); experiment: PLAP enzyme inhibitors, confirmation, biochemical, luminescence (AID 1512); type: functional
[12] = molecular target: T5, Alkaline phosphatase, tissue-nonspecific isozyme (Homo sapiens, UniProt P05186); experiment: human TNAP enzyme inhibitors, SAR follow-up, biochemical, luminescent, dose response (AID 1056)
T5 sequence (P05186 whole entry): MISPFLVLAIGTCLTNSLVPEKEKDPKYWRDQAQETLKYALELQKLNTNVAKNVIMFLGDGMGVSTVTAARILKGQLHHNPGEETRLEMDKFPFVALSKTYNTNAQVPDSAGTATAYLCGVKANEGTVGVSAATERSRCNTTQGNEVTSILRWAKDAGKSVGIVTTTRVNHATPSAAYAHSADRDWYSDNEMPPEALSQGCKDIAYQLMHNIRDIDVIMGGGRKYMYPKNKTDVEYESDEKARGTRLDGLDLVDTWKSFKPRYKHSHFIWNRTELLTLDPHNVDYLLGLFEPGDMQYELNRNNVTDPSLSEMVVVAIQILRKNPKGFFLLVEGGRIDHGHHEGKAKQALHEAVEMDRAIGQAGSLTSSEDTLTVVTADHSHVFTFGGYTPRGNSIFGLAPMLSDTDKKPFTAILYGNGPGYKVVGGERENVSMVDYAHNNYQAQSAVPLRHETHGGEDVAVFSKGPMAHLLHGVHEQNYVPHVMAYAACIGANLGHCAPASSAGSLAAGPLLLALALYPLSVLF

[13] = molecular target: Glyceraldehyde-3-phosphate dehydrogenase (Homo sapiens, UniProt P04406)
[14] = molecular target: Peroxisome proliferator-activated receptor gamma/Nuclear receptor coactivator 1 (Homo sapiens, UniProt P37231); experiment: TR-FRET dose response biochemical High Throughput Screening assay for agonists of the steroid receptor coactivator 1 (SRC-1) recruitment by the peroxisome proliferator-activated receptor gamma (PPAR gamma): non-selective agonists. [Related pubchem assays (depositor defined):AID1300, AID1808, AID504735, AID631]; type: protein assay
[15] = molecular target: Peroxisome proliferator-activated receptor gamma/Nuclear receptor coactivator 2 (Homo sapiens, UniProt P37231); experiment: (§1) TR-FRET dose response biochemical High Throughput Screening assay for agonists of the steroid receptor coactivator 2 (SRC-2) recruitment by the peroxisome proliferator-activated receptor gamma (PPAR gamma): non-selective agonists. [Related pubchem assays: 1297, 1032 ]; type: functional
[16] = molecular target: Peroxisome proliferator-activated receptor gamma/Nuclear receptor coactivator 3 (Homo sapiens, UniProt P37231); experiment: as §1, with “3 (SRC-3)” for “2 (SRC-2)”, “1301 (Confirmation screen.), 1048 (Primary screen.)]” for “1297, 1032 ]”; type: functional
[17] = molecular target: Induced myeloid leukemia cell differentiation protein Mcl-1 (Homo sapiens, UniProt Q07820); type: functional
[18] = molecular target: Polyadenylate-binding protein 1 (Homo sapiens, UniProt P11940); experiment: PABP inhibition in translation initiation, SAR follow-up (AID 435018); type: functional
[19] = molecular target: Eukaryotic translation initiation factor 4H (Homo sapiens, UniProt Q15056); experiment: eIF4H inhibition in translation initiation, SAR follow-up (AID 435011); type: functional
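Throughout, for AC50: cells exposed to compound for roughly 70 hours or longer before luminescence read.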

T3 sequence (P98170 whole entry): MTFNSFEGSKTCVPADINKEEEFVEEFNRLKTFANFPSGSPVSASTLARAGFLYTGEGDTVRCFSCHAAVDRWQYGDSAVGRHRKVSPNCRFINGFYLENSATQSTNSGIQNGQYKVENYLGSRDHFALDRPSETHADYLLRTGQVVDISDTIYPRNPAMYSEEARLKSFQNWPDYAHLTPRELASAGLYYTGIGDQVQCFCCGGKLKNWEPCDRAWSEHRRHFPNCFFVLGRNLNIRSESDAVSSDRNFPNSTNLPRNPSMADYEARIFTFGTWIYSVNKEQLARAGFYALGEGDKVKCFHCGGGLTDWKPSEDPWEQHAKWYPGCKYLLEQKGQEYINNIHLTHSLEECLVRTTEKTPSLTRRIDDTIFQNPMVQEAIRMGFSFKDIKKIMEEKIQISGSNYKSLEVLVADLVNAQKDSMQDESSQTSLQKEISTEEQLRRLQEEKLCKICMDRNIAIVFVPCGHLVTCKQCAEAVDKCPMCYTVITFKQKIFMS
T2 sequence (Q00975 whole entry): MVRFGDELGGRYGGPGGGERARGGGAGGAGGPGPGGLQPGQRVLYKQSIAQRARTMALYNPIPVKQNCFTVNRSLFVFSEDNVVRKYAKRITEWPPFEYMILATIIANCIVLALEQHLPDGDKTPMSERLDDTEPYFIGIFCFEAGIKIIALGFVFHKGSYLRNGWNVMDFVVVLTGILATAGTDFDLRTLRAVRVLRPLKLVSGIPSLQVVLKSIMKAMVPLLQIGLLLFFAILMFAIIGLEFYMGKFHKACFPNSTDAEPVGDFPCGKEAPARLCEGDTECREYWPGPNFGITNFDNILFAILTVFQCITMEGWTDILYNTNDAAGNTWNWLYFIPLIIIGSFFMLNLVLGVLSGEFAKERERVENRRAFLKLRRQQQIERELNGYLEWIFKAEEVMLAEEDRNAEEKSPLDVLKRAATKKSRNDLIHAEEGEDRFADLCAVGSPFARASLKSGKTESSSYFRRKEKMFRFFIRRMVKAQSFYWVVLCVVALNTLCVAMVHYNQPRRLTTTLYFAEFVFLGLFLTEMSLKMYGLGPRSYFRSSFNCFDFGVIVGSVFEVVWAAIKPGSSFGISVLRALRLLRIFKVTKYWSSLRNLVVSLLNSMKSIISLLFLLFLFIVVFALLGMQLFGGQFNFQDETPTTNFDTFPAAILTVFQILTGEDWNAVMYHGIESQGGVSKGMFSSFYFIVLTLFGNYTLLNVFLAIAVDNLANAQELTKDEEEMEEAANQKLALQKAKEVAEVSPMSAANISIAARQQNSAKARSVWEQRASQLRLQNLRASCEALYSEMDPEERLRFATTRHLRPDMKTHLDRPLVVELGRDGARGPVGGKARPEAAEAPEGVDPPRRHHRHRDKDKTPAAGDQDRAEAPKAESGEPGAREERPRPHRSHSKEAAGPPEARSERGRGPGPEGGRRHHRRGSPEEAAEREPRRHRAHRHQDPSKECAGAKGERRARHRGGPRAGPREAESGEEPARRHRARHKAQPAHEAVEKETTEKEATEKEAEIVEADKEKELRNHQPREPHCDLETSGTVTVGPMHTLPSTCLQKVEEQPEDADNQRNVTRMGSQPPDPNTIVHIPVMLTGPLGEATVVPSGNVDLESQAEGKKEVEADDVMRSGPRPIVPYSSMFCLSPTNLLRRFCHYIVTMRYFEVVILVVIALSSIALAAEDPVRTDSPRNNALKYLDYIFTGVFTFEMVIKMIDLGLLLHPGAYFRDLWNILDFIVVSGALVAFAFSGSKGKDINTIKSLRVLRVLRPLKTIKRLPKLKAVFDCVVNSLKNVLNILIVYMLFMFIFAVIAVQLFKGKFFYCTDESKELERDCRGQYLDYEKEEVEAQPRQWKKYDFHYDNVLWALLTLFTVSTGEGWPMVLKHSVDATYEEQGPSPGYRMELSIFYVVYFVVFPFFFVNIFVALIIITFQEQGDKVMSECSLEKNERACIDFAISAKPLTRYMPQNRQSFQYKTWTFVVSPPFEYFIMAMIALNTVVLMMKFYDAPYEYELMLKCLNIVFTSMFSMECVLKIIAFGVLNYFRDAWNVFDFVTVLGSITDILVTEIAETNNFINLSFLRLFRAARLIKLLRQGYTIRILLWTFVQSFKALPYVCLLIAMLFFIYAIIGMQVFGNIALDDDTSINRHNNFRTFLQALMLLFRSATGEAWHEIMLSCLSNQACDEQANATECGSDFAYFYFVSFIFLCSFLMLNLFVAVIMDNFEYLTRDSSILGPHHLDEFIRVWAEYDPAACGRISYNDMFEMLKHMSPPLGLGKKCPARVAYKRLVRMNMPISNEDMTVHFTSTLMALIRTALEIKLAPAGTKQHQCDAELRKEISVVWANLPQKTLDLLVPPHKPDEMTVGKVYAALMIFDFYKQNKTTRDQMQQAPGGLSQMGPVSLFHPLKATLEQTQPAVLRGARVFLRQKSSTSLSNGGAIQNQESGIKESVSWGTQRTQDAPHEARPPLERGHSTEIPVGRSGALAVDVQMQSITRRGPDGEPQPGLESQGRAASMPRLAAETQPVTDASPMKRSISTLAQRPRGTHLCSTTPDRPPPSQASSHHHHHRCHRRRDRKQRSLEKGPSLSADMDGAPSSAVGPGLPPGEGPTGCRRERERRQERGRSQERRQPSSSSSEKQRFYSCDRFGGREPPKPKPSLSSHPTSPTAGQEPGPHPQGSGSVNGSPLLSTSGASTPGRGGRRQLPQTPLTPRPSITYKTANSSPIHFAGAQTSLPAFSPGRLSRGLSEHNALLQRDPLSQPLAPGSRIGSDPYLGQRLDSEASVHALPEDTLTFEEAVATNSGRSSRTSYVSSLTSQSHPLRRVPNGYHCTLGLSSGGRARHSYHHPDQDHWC
T2 sequence (Q02410 whole entry): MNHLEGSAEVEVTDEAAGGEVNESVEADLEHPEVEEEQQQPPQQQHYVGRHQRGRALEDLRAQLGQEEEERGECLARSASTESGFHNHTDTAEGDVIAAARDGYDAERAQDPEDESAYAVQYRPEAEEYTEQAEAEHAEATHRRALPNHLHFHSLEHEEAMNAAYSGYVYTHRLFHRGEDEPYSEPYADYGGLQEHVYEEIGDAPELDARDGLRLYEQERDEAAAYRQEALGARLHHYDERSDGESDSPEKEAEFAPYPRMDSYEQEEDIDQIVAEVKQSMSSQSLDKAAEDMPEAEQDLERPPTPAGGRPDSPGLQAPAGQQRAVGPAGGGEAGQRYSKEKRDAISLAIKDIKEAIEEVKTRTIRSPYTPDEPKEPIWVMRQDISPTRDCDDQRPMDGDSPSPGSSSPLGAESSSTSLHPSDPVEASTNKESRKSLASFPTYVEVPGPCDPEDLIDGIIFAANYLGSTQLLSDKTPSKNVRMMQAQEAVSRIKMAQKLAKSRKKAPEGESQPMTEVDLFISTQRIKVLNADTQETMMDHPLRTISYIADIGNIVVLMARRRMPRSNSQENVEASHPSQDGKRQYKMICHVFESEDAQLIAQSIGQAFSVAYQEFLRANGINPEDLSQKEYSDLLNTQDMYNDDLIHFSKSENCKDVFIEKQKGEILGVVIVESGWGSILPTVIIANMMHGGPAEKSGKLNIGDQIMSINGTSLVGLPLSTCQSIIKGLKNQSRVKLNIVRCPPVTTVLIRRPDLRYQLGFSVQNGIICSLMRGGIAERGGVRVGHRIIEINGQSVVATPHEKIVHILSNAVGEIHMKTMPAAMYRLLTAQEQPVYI
72 kDa type IV collagenase, sequence (P08253 whole entry): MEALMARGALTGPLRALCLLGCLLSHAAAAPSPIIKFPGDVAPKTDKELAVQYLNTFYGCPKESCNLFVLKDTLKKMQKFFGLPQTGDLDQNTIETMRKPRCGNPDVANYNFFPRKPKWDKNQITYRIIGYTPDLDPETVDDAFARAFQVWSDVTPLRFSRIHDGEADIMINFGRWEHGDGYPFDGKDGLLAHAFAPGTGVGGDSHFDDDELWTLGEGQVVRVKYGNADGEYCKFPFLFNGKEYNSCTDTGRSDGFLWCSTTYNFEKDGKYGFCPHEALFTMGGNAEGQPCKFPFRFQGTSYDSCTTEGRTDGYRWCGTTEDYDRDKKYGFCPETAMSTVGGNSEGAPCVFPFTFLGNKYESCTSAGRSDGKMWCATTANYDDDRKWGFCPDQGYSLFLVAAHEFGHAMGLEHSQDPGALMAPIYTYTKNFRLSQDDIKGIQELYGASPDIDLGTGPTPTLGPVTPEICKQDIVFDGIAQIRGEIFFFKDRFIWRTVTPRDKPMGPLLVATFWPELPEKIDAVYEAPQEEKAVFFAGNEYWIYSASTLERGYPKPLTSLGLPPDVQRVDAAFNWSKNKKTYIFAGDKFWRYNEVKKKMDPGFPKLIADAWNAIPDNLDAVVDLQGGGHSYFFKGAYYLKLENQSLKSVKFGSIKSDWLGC
Induced myeloid leukemia cell differentiation protein Mcl-1, sequence (Q07820 whole entry): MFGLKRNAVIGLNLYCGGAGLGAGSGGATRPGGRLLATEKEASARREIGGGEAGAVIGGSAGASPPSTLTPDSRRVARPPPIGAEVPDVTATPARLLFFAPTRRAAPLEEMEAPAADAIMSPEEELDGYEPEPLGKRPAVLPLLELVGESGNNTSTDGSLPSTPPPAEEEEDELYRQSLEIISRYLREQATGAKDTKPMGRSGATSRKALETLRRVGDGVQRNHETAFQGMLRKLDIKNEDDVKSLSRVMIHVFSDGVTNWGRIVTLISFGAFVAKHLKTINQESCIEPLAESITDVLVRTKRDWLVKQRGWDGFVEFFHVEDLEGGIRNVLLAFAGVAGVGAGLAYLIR
26S proteasome non-ATPase regulatory subunit 14, sequence (O00487 whole entry): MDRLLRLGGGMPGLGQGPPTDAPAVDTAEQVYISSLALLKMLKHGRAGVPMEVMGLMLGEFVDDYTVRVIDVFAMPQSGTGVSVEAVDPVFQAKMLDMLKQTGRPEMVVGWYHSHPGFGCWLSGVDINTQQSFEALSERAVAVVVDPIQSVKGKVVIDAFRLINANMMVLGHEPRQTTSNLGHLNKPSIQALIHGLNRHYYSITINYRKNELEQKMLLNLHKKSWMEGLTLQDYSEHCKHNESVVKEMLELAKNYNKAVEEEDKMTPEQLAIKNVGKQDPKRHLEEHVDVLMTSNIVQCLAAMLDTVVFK

- IC50 (Prothrombin): 51.4 µM (active)
- IC50 [1]: 4.56 µM (active)
- IC50 [2]: > 100 µM (inactive)
- IC50 [3]: 4.83 µM (active)
- IC50 [4]: > 50 µM (inactive)
- IC50 [5]: 8.12 µM (active)
- IC50 (SUMO-activating enzyme): 13.8 µM (active)
Compound: NS(=O)(=O)c1ccc(NC(=O)c2ccc(-c3ccccc3)cc2)cc1

- IC50 [6]: 25 µM (active)
Compound: NS(=O)(=O)c1ccc(NC(=S)Nc2ccccc2)cc1

- IC50 [7]: > 100 µM (inactive)
- IC50 [8]: > 100 µM (not active)
Compound: O=C(NCCCN1CCOCC1)c1ccc(Br)cc1Br

Compound: c1ccc2c(-c3ccc(OCCN4CCCCC4)cc3)c(-c3ccsc3)sc2c1
- EC50 (Integrin alpha-4): > 69.8 µM (inactive)
- AC50 [9]: 1.27 µM (active)
- IC50 [10]: > 20 µM (inactive)

- IC50 [11]: > 100 µM (inactive)
- IC50 [12]: > 100 µM (inactive)
- IC50 [13]: > 100 µM (not active)
Compound: Cc1ccccc1OCc1nc2c3cnn(C)c3ncn2n1

- EC50 [14]: > 79.4 µM (inactive)
- EC50 [15]: > 79.4 µM (not active)
- EC50 [16]: > 79.4 µM (not active)
- IC50 [17]: < 0.4 µM (active)
Compound: CC(C)c1nc2sc3c(=O)[nH]c(=S)[nH]c3c2c2c1CCC2

Compound: CN(C(=O)C1CCN(C(=O)c2cccs2)CC1)c1ccccc1
- IC50 [18]: > 100 µM (inactive)
- IC50 [19]: > 100 µM (inactive)
